Results reported in patent US20230391768A2, “IMIDAZOPYRIDINE DERIVATIVES AND AZA-IMIDAZOPYRIDINE DERIVATIVES AS JANUS KINASE 2 INHIBITORS AND USES THEREOF” (Dana-Farber Cancer Institute, Inc., priority 2018, published 2023).

Columns and labels:
JAK2 = JAK2 (Homo sapiens (Human), UniProt O60674); test: JAK2 Z-Lyte biochemical assay; conditions: commercial JAK2 Z-Lyte assay from Invitrogen
Method: The JAK2 Z-Lyte biochemical assay was performed according to manufacturer's instructions (Life Technologies).

[1] = test system: cell lines or patient-derived xenografts from patients with CRLF2-rearranged B-ALL; conditions: cited from earlier work

JAK2, sequence (O60674 whole entry): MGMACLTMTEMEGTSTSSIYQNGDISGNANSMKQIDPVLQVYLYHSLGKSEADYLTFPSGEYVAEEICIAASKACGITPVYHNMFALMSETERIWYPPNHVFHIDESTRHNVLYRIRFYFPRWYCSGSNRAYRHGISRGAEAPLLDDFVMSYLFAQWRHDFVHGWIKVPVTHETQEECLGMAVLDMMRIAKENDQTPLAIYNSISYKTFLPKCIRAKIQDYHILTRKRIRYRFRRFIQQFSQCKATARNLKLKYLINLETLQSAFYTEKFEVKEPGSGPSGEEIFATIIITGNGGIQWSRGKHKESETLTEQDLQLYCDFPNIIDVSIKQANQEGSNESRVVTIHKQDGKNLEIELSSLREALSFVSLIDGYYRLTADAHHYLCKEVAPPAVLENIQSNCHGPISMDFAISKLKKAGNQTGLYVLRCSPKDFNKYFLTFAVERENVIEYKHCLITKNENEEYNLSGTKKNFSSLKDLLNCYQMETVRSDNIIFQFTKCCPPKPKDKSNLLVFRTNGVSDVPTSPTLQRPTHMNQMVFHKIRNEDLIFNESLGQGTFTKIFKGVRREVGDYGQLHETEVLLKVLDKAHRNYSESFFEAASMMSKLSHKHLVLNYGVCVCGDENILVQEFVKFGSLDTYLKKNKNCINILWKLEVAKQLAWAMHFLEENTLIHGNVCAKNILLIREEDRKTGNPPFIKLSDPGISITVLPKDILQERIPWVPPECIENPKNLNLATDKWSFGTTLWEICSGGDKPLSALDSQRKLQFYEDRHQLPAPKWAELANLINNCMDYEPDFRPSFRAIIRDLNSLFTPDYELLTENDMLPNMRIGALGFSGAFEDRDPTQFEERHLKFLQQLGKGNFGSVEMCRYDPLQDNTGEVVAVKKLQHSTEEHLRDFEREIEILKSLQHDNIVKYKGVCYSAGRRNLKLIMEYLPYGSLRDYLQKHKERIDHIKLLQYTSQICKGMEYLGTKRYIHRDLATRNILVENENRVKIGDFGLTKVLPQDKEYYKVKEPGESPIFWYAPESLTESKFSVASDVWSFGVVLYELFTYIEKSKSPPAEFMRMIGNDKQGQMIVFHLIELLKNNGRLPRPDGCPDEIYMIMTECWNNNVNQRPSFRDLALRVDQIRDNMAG

| Compound | IC50 (JAK2) | IC50 [1] |
| --- | --- | --- |
| CCN1CCN(Cc2cc(NC(=O)c3ccc(C(F)(F)F)c(-c4ccc5nc(NC(=O)C6CC6)cn5n4)c3)cc(C(F)(F)F)c2)CC1 [Compound I-22, 3-(2-(cyclopropanecarboxamido)imidazo[1,2-b]pyridazin-6-yl)-N-(3-((4-ethylpiperazin-1-yl)methyl)-5-(trifluoromethyl)phenyl)-4-(trifluoromethyl)benzamide] | 1.9 µM |  |
| CCN1CCN(Cc2cc(NC(=O)c3cc(-c4ccc5nc(NC(=O)C6CC6)cn5n4)c(C)cn3)cc(C(F)(F)F)c2)CC1 [Compound I-18, 4-(2-(cyclopropanecarboxamido)imidazo[1,2-b]pyridazin-6-yl)-N-(3-((4-ethylpiperazin-1-yl)methyl)-5-(trifluoromethyl)phenyl)-5-methylpicolinamide] | 0.985 µM |  |
| CCN1CCN(Cc2cc(NC(=O)c3cnc(C)c(-c4ccc5nc(NC(=O)C6CC6)cn5n4)c3)cc(C(F)(F)F)c2)CC1 [Compound I-16, 5-(2-(cyclopropanecarboxamido)imidazo[1,2-b]pyridazin-6-yl)-N-(3-((4-ethylpiperazin-1-yl)methyl)-5-(trifluoromethyl)phenyl)-6-methylnicotinamide] | 0.486 µM |  |
| CCN1CCN(Cc2cc(NC(=O)c3ccc(C)c(-c4ccc5nc(NC(=O)C6CC6)n(C)c5c4)c3)cc(C(F)(F)F)c2)CC1 [Compound I-25, 3-(2-(cyclopropanecarboxamido)-1-methyl-1H-benzo[d]imidazol-6-yl)-N-(3-((4-ethylpiperazin-1-yl)methyl)-5-(trifluoromethyl)phenyl)-4-methylbenzamide] | 7.02 µM |  |
| CCN1CCN(Cc2cc(NC(=O)c3ccc(C)c(-c4cnc5nc(NC(=O)C6CC6)cn5c4)c3)cc(C(F)(F)F)c2)CC1 [Compound I-5, 3-(2-(cyclopropanecarboxamido)imidazo[1,2-a]pyrimidin-6-yl)-N-(3-((4-ethylpiperazin-1-yl)methyl)-5-(trifluoromethyl)phenyl)-4-methylbenzamide] | 9.51 µM |  |
| CCN1CCN(Cc2cc(NC(=O)c3cc(-c4ccc5nc(NC(=O)C6CC6)cn5n4)c(C)cc3C)cc(C(F)(F)F)c2)CC1 [Compound I-19, 5-(2-(cyclopropanecarboxamido)imidazo[1,2-b]pyridazin-6-yl)-N-(3-((4-ethylpiperazin-1-yl)methyl)-5-(trifluoromethyl)phenyl)-2,4-dimethylbenzamide] | 8.76 µM |  |
| CCN1CCN(Cc2cc(NC(=O)c3ccc(C#N)c(-c4ccc5nc(NC(=O)C6CC6)cn5n4)c3)cc(C(F)(F)F)c2)CC1 [Compound I-23, 4-cyano-3-(2-(cyclopropanecarboxamido)imidazo[1,2-b]pyridazin-6-yl)-N-(3-((4-ethylpiperazin-1-yl)methyl)-5-(trifluoromethyl)phenyl)benzamide] | 5.12 µM |  |
| CCN1CCN(Cc2cc(NC(=O)c3cc(-c4ccc5nc(NC(=O)C6CC6)cn5n4)c(C)cc3F)cc(C(F)(F)F)c2)CC1 [Compound I-17, 5-(2-(cyclopropanecarboxamido)imidazo[1,2-b]pyridazin-6-yl)-N-(3-((4-ethylpiperazin-1-yl)methyl)-5-(trifluoromethyl)phenyl)-2-fluoro-4-methylbenzamide] | 0.934 µM |  |
| CCN1CCN(Cc2cc(NC(=O)c3ccc(C)c(-c4ccc5[nH]c(NC(=O)C6CC6)nc5n4)c3)cc(C(F)(F)F)c2)CC1 [Compound I-27, 3-(2-(cyclopropanecarboxamido)-1H-imidazo[4,5-b]pyridin-5-yl)-N-(3-((4-ethylpiperazin-1-yl)methyl)-5-(trifluoromethyl)phenyl)-4-methylbenzamide] | 1.53 µM |  |
| CCN1CCN(Cc2cc(NC(=O)c3ccc(C)c(-c4ccc5c(c4)nc(NC(=O)C4CC4)n5C)c3)cc(C(F)(F)F)c2)CC1 [Compound I-26, 3-(2-(cyclopropanecarboxamido)-1-methyl-1H-benzo[d]imidazol-5-yl)-N-(3-((4-ethylpiperazin-1-yl)methyl)-5-(trifluoromethyl)phenyl)-4-methylbenzamide] | > 10 µM |  |
| COCCN1CCN(Cc2cc(NC(=O)c3ccc(C)c(-c4ccc5nc(NC(=O)C6CC6)cn5n4)c3)cc(C(F)(F)F)c2)CC1 [Compound I-12, 3-(2-(cyclopropanecarboxamido)imidazo[1,2-b]pyridazin-6-yl)-N-(3-((4-(2-methoxyethyl)piperazin-1-yl)methyl)-5-(trifluoromethyl)phenyl)-4-methylbenzamide] | 1.82 µM |  |
| CCN1CCN(Cc2cc(NC(=O)c3ccc(C)c(-c4cn5cc(NC(=O)C6CC6)nc5cn4)c3)cc(C(F)(F)F)c2)CC1 [Compound I-4, 3-(2-(cyclopropanecarboxamido)imidazo[1,2-a]pyrazin-6-yl)-N-(3-((4-ethylpiperazin-1-yl)methyl)-5-(trifluoromethyl)phenyl)-4-methylbenzamide] | 0.95 µM |  |
| CCN1CCN(Cc2ccc(NC(=O)c3ccc(C)c(-c4ccc5nc(NC(=O)C6CC6)cn5c4)c3)cc2C(F)(F)F)CC1 [Compound I-7, 3-(2-(cyclopropanecarboxamido)imidazo[1,2-a]pyridin-6-yl)-N-(4-((4-ethylpiperazin-1-yl)methyl)-3-(trifluoromethyl)phenyl)-4-methylbenzamide] | 0.672 µM |  |
| N#CC[C@H](C1CCCC1)n1cc(-c2ncnc3[nH]ccc23)cn1 [Ruxolitinib] |  | > 20 µM |
| CCN1CCN(Cc2ccc(NC(=O)c3ccc(C)c(-c4ccc5nc(NC(=O)C6CC6)cn5n4)c3)cc2C(F)(F)F)CC1 [Compound I-15, 3-(2-(cyclopropanecarboxamido)imidazo[1,2-b]pyridazin-6-yl)-N-(4-((4-ethylpiperazin-1-yl)methyl)-3-(trifluoromethyl)phenyl)-4-methylbenzamide] | 1.1 µM |  |
| Cc1ccc(C(=O)Nc2cc(CN3CCNCC3)cc(C(F)(F)F)c2)cc1-c1ccc2nc(NC(=O)C3CC3)cn2n1 [Compound I-9, 3-(2-(cyclopropanecarboxamido)imidazo[1,2-b]pyridazin-6-yl)-4-methyl-N-(3-(piperazin-1-ylmethyl)-5-(trifluoromethyl)phenyl)benzamide] | 0.301 µM |  |
| CCN1CCN(Cc2cc(NC(=O)c3ccc(C)c(-c4ccc5nc(NC(=O)C6CC6)nn5c4)c3)cc(C(F)(F)F)c2)CC1 [Compound I-1, 3-(2-(cyclopropanecarboxamido)-[1,2,4]triazolo[1,5-a]pyridin-6-yl)-N-(3-((4-ethylpiperazin-1-yl)methyl)-5-(trifluoromethyl)phenyl)-4-methylbenzamide] | 0.508 µM |  |
| CCc1ccc(C(=O)Nc2cc(CN3CCN(CC)CC3)cc(C(F)(F)F)c2)cc1-c1ccc2nc(NC(=O)C3CC3)cn2n1 [Compound I-20, 3-(2-(cyclopropanecarboxamido)imidazo[1,2-b]pyridazin-6-yl)-4-ethyl-N-(3-((4-ethylpiperazin-1-yl)methyl)-5-(trifluoromethyl)phenyl)benzamide] | 0.399 µM |  |
| CCN1CCN(Cc2cc(NC(=O)c3ccc(C)c(-c4ccn5nc(NC(=O)C6CC6)nc5c4)c3)cc(C(F)(F)F)c2)CC1 [Compound I-3, 3-(2-(cyclopropanecarboxamido)-[1,2,4]triazolo[1,5-a]pyridin-7-yl)-N-(3-((4-ethylpiperazin-1-yl)methyl)-5-(trifluoromethyl)phenyl)-4-methylbenzamide] | 0.981 µM |  |
| CCN1CCN(Cc2cc(C(=O)Nc3ccc(C)c(-c4ccc5nc(NC(=O)C6CC6)cn5c4)c3)cc(C(F)(F)F)c2)CC1 [Compound I-8, N-(3-(2-(cyclopropanecarboxamido)imidazo[1,2-a]pyridin-6-yl)-4-methylphenyl)-3-((4-ethylpiperazin-1-yl)methyl)-5-(trifluoromethyl)benzamide] | 0.824 µM |  |
| CCS(=O)(=O)N1CCN(Cc2cc(NC(=O)c3ccc(C)c(-c4ccc5nc(NC(=O)C6CC6)cn5n4)c3)cc(C(F)(F)F)c2)CC1 [Compound I-11, 3-(2-(cyclopropanecarboxamido)imidazo[1,2-b]pyridazin-6-yl)-N-(3-((4-(ethylsulfonyl)piperazin-1-yl)methyl)-5-(trifluoromethyl)phenyl)-4-methylbenzamide] | 2.62 µM |  |
| CCN1CCN(Cc2cc(NC(=O)c3cc(-c4ccc5nc(NC(=O)C6CC6)cn5n4)c(C)nc3O)cc(C(F)(F)F)c2)CC1 [Compound I-21, 5-(2-(cyclopropanecarboxamido)imidazo[1,2-b]pyridazin-6-yl)-N-(3-((4-ethylpiperazin-1-yl)methyl)-5-(trifluoromethyl)phenyl)-2-hydroxy-6-methylnicotinamide] | > 10 µM |  |
| CC(=O)N1CCN(Cc2cc(NC(=O)c3ccc(C)c(-c4ccc5nc(NC(=O)C6CC6)cn5n4)c3)cc(C(F)(F)F)c2)CC1 [Compound I-10, N-(3-((4-acetylpiperazin-1-yl)methyl)-5-(trifluoromethyl)phenyl)-3-(2-(cyclopropanecarboxamido)imidazo[1,2-b]pyridazin-6-yl)-4-methylbenzamide] | 1.35 µM |  |
| Cc1ccc(C(=O)Nc2cc(CN3CCN(CC4CC4)CC3)cc(C(F)(F)F)c2)cc1-c1ccc2nc(NC(=O)C3CC3)cn2n1 [Compound I-14, 3-(2-(cyclopropanecarboxamido)imidazo[1,2-b]pyridazin-6-yl)-N-(3-((4-(cyclopropylmethyl)piperazin-1-yl)methyl)-5-(trifluoromethyl)phenyl)-4-methylbenzamide] | 0.772 µM |  |
| CCOC(=O)N1CCN(Cc2cc(NC(=O)c3ccc(C)c(-c4ccc5nc(NC(=O)C6CC6)cn5n4)c3)cc(C(F)(F)F)c2)CC1 [Compound I-13, ethyl 4-(3-(3-(2-(cyclopropanecarboxamido)imidazo[1,2-b]pyridazin-6-yl)-4-methylbenzamido)-5-(trifluoromethyl)benzyl)piperazine-1-carboxylate] | 3.18 µM |  |
| CCN1CCN(Cc2cc(NC(=O)c3ccc(C)c(-c4ccc5nc(N)cn5n4)c3)cc(C(F)(F)F)c2)CC1 [Compound I-24, 3-(2-aminoimidazo [1,2-b]pyridazin-6-yl)-N-(3-((4-ethylpiperazin-1-yl)methyl)-5-(trifluoromethyl)phenyl)-4-methylbenzamide] | > 3.33 µM |  |
